{
  "source": "patent US10016382B2",
  "about": "“Method for decreasing skeletal muscle damage and/or oxidative stress in mammals” (LONZA INC., priority 2014, dated 2018)",
  "system": "Labrador Retrievers",
  "assay": "Heart rate and body temperature recovery following 15 mile run, Example 1",
  "assay_type": "in vivo, dog",
  "conditions": "Ex.1, 250 mg/d; for Dog body temperature after run / Heartrate after run / Temperature before run / Heartrate before run: mean ± SEM; for Temperature before run / Heartrate before run: before 15 mile run",
  "source_text": "Each test dog wore an Actical activity monitor from Philips Respironics on a collar for the short higher intensity runs and also wore an Actical activity monitor for the weekly longer endurance runs. The activity data was downloaded into spread sheets along with each dogs identity. Twenty four hours after each long run during the 13 wk running program each of the dogs were scored by kennel staff for soreness or any type of lameness The exercise program was decreased in a tapering program during wk 11 and 12 to allow the dogs to rest for the final long run completed on wk 13. Pre-run serum samples from each test dog was taken 24 hr before the last endurance run. The heart rate and basal body temperature was determined for each test dog prior to the last long endurance run. Each performance dog also wore the Actical activity monitor during the last endurance run. The dogs were put through a 15 mile run that included mud, water, tall grass, and swimming. The dogs were timed when they completed the course. The dogs were encouraged by kennel staff that rode along in a 4 wheel all terrain type vehicle during all of the endurance runs. […] Immediately following the 15 mile endurance run, each dog was placed in a kennel and evaluated for recovery time for body temperature (every 15 minutes for 2 hr) and heart rate (every 2 minutes for 14 minutes). Twenty four hours after test dogs ran the last 15 endurance run, post-run serum samples were taken to evaluate biomarkers for muscle damage and antioxidant status. Each test dog was also scanned with the GE Prodigy DEXA to determine body composition change that occurred during the course of the 13 wk study. The dogs were timed during the last 15 mile run at the end of the study. The body temperature and heart rate for each dog was determined just prior to the long 15 mile run. The heart rate measurements were determined manually and body temperature was determined by using a rectal thermometer. Each staff member was responsible for determining the time required to complete the run for one of the test dogs in each set. Each staff member was also responsible for determining the heart rate and body temperature of their specific assigned dog immediately upon their return after the run. The heart rate was determined every 2 minutes for a fourteen minute period following the last long run and the body temperature was determined every 15 minute for a two hour period after completing the long run. The heart rate and body temperature was determined both before and after to evaluate the fitness and time required after run to reach basal HR and body temperatures.",
  "key": {"[1]": {"conditions": "0 min after 15 mile run, both sexes"}, "[2]": {"conditions": "0 min after 15 mile run, females"}},
  "note": "Several values for one entry are separate records, joined by “and”; a condition that tells them apart may be missing. Identical values can stand only once.",
  "data": [
    {"smiles": "C[N+](C)(C)C[C@H](O)CC(=O)[O-]", "note": "[L-carnitine]", "values": [
      {"measurement": "Dog body temperature after run", "setting": "[1]", "result": "103.7 ± 0.3", "unit": "n = 19 ° F."},
      {"measurement": "Heartrate after run", "setting": "[1]", "result": "159 and 159 ± 4 n = 16"},
      {"measurement": "Dog body temperature after run", "setting": "[2]", "result": "103.6 ± 0.5", "unit": "n = 9 ° F."},
      {"measurement": "Heartrate after run", "setting": "[2]", "result": "155 ± 5", "unit": "n = 8"},
      {"measurement": "Dog body temperature after run", "setting": "0 min after 15 mile run, males", "result": "103.8 ± 0.3", "unit": "n = 10 ° F."},
      {"measurement": "Heartrate after run", "setting": "0 min after 15 mile run, males", "result": "164 ± 6", "unit": "n = 11"},
      {"measurement": "Heartrate after run", "setting": "2 min after 15 mile run, both sexes", "result": "146 ± 5", "unit": "n = 16"},
      {"measurement": "Heartrate after run", "setting": "2 min after 15 mile run, females", "result": "139 ± 6", "unit": "n = 8"},
      {"measurement": "Heartrate after run", "setting": "2 min after 15 mile run, males", "result": "149 ± 6", "unit": "n = 11"},
      {"measurement": "Heartrate after run", "setting": "4 min after 15 mile run, both sexes", "result": "131 ± 5", "unit": "n = 16"},
      {"measurement": "Heartrate after run", "setting": "4 min after 15 mile run, females", "result": "123 ± 6", "unit": "n = 8"},
      {"measurement": "Heartrate after run", "setting": "4 min after 15 mile run, males", "result": "143 ± 8", "unit": "n = 11"},
      {"measurement": "Heartrate after run", "setting": "6 min after 15 mile run, both sexes", "result": "123 ± 5", "unit": "n = 16"},
      {"measurement": "Heartrate after run", "setting": "6 min after 15 mile run, females", "result": "120 ± 6", "unit": "n = 8"},
      {"measurement": "Heartrate after run", "setting": "6 min after 15 mile run, males", "result": "131 ± 6", "unit": "n = 11"},
      {"measurement": "Heartrate after run", "setting": "8 min after 15 mile run, both sexes", "result": "114 ± 4", "unit": "n = 16"},
      {"measurement": "Heartrate after run", "setting": "8 min after 15 mile run, females", "result": "111 ± 6", "unit": "n = 8"},
      {"measurement": "Heartrate after run", "setting": "8 min after 15 mile run, males", "result": "125 ± 6", "unit": "n = 11"},
      {"measurement": "Heartrate after run", "setting": "10 min after 15 mile run, both sexes", "result": "113 ± 5", "unit": "n = 16"},
      {"measurement": "Heartrate after run", "setting": "10 min after 15 mile run, females", "result": "109 ± 5", "unit": "n = 8"},
      {"measurement": "Heartrate after run", "setting": "10 min after 15 mile run, males", "result": "120 ± 6", "unit": "n = 11"},
      {"measurement": "Heartrate after run", "setting": "12 min after 15 mile run, both sexes", "result": "107 ± 4", "unit": "n = 16"},
      {"measurement": "Heartrate after run", "setting": "12 min after 15 mile run, females", "result": "107 ± 7", "unit": "n = 7"},
      {"measurement": "Heartrate after run", "setting": "12 min after 15 mile run, males", "result": "112 ± 5", "unit": "n = 11"},
      {"measurement": "Heartrate after run", "setting": "14 min after 15 mile run, both sexes", "result": "101 ± 4", "unit": "n = 16"},
      {"measurement": "Heartrate after run", "setting": "14 min after 15 mile run, females", "result": "103 ± 7", "unit": "n = 7"},
      {"measurement": "Heartrate after run", "setting": "14 min after 15 mile run, males", "result": "102 ± 5", "unit": "n = 10"},
      {"measurement": "Dog body temperature after run", "setting": "15 min after 15 mile run, both sexes", "result": "102.6 ± 0.2", "unit": "n = 20 ° F."},
      {"measurement": "Dog body temperature after run", "setting": "15 min after 15 mile run, females", "result": "102.6 ± 0.4", "unit": "n = 9 ° F."},
      {"measurement": "Dog body temperature after run", "setting": "15 min after 15 mile run, males", "result": "102.5 ± 0.2", "unit": "n = 11 ° F."},
      {"measurement": "Dog body temperature after run", "setting": "30 min after 15 mile run, both sexes", "result": "101.6 ± 0.1", "unit": "n = 20 ° F."},
      {"measurement": "Dog body temperature after run", "setting": "30 min after 15 mile run, females", "result": "101.3 ± 0.2", "unit": "n = 9 ° F."},
      {"measurement": "Dog body temperature after run", "setting": "30 min after 15 mile run, males", "result": "101.9 ± 0.1", "unit": "n = 11 ° F."},
      {"measurement": "Dog body temperature after run", "setting": "45 min after 15 mile run, both sexes", "result": "101.1 ± 0.1", "unit": "n = 20 ° F."},
      {"measurement": "Dog body temperature after run", "setting": "45 min after 15 mile run, females", "result": "101 ± 0.2", "unit": "n = 9 ° F."},
      {"measurement": "Dog body temperature after run", "setting": "45 min after 15 mile run, males", "result": "101.1 ± 0.1", "unit": "n = 11 ° F."},
      {"measurement": "Dog body temperature after run", "setting": "60 min after 15 mile run, both sexes", "result": "100.9 ± 0.2", "unit": "n = 20 ° F."},
      {"measurement": "Dog body temperature after run", "setting": "60 min after 15 mile run, females", "result": "100.8 ± 0.3", "unit": "n = 9 ° F."},
      {"measurement": "Dog body temperature after run", "setting": "60 min after 15 mile run, males", "result": "101 ± 0.2", "unit": "n = 11 ° F."},
      {"measurement": "Dog body temperature after run", "setting": "75 min after 15 mile run, both sexes", "result": "100.7 ± 0.2", "unit": "n = 19 ° F."},
      {"measurement": "Dog body temperature after run", "setting": "75 min after 15 mile run, females", "result": "100.7 ± 0.3", "unit": "n = 8 ° F."},
      {"measurement": "Dog body temperature after run", "setting": "75 min after 15 mile run, males", "result": "100.7 ± 0.2", "unit": "n = 11 ° F."},
      {"measurement": "Dog body temperature after run", "setting": "90 min after 15 mile run, both sexes", "result": "100.7 ± 0.2", "unit": "n = 20 ° F."},
      {"measurement": "Dog body temperature after run", "setting": "90 min after 15 mile run, females", "result": "100.6 ± 0.3", "unit": "n = 9 ° F."},
      {"measurement": "Dog body temperature after run", "setting": "90 min after 15 mile run, males", "result": "100.8 ± 0.2", "unit": "n = 11 ° F."},
      {"measurement": "Dog body temperature after run", "setting": "105 min after 15 mile run, both sexes", "result": "100.4 ± 0.2", "unit": "n = 19 ° F."},
      {"measurement": "Dog body temperature after run", "setting": "105 min after 15 mile run, females", "result": "100.2 ± 0.4", "unit": "n = 8 ° F."},
      {"measurement": "Dog body temperature after run", "setting": "105 min after 15 mile run, males", "result": "100.5 ± 0.2", "unit": "n = 11 ° F."},
      {"measurement": "Dog body temperature after run", "setting": "120 min after 15 mile run, both sexes", "result": "100.7 ± 0.2", "unit": "n = 14 ° F."},
      {"measurement": "Dog body temperature after run", "setting": "120 min after 15 mile run, females", "result": "100.7 ± 0.4", "unit": "n = 4 ° F."},
      {"measurement": "Dog body temperature after run", "setting": "120 min after 15 mile run, males", "result": "100.8 ± 0.2", "unit": "n = 10 ° F."},
      {"measurement": "Time to get heart rate back to basal levels", "setting": "after 15 mile run, both treatments required this time", "result": "approximately 14 minutes"},
      {"measurement": "Temperature before run", "setting": "both sexes", "result": "101.3 ± 0.2", "unit": "n = 20 ° F."},
      {"measurement": "Heartrate before run", "setting": "females", "result": "89 ± 3", "unit": "n = 9"},
      {"measurement": "Temperature before run", "setting": "females", "result": "101.0 ± 0.1", "unit": "n = 9 ° F."},
      {"measurement": "Heartrate before run", "setting": "males", "result": "89 ± 3", "unit": "n = 11"},
      {"measurement": "Temperature before run", "setting": "males", "result": "101.7 ± 0.4", "unit": "n = 11 ° F."},
      {"measurement": "Heart rate and body temperature recovery vs control", "setting": "following the final long run", "result": "not different"},
      {"measurement": "Time back to pre-run core temperature", "setting": "males, following 15 mile run, both groups", "result": "30 to 45", "unit": "min"}
    ]}
  ]
}
